Test results from PubChem BioAssay (NCI).
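All cell lines were grown in 96-well plates and treated with compound for 48 hours. TGI is the concentration that stops growth completely.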

Tests used:
Test in all cases: NCI tumour cell line growth inhibition, 48 h
[1] = system: 786-0 renal
[2] = system: A549 NSCLC
[3] = system: ACHN renal
[4] = system: CAKI-1 renal
[5] = system: CCRF-CEM leukemia
[6] = system: COLO 205 colon
[7] = system: DLD-1 colon
[8] = system: DMS 114 small cell lung
[9] = system: DMS 273 small cell lung
[10] = system: EKVX NSCLC
[11] = system: HCC-2998 colon
[12] = system: HCT-116 colon
[13] = system: HCT-15 colon
[14] = system: HOP-62 NSCLC
[15] = system: HOP-92 NSCLC
[16] = system: HT29 colon
[17] = system: IGROV1 ovarian
[18] = system: K-562 leukemia
[19] = system: KM12 colon
[20] = system: KM20L2 colon
[21] = system: LOX IMVI melanoma
[22] = system: LXFL 529 NSCLC
[23] = system: M14 melanoma
[24] = system: M19-MEL melanoma
[25] = system: MALME-3M melanoma
[26] = system: MOLT-4 leukemia
[27] = system: NCI-H226 lung
[28] = system: NCI-H23 lung
[29] = system: NCI-H460 lung
[30] = system: NCI-H522 lung
[31] = system: OVCAR-3 ovarian
[32] = system: OVCAR-4 ovarian
[33] = system: OVCAR-5 ovarian
[34] = system: OVCAR-8 ovarian
[35] = system: RPMI-8226 leukemia
[36] = system: RXF 393 renal
[37] = system: RXF-631 renal
[38] = system: SF-268 CNS
[39] = system: SF-295 CNS
[40] = system: SF-539 CNS
[41] = system: SK-MEL-2 melanoma
[42] = system: SK-MEL-28 melanoma
[43] = system: SK-MEL-5 melanoma
[44] = system: SK-OV-3 ovarian
[45] = system: SN12C renal
[46] = system: SNB-19 CNS
[47] = system: SNB-75 CNS
[48] = system: SNB-78 CNS
[49] = system: SW-620 colon
[50] = system: TK-10 renal
[51] = system: U251 CNS
[52] = system: UACC-257 melanoma
[53] = system: UACC-62 melanoma
[54] = system: UO-31 renal
[55] = system: A498 renal
[56] = system: HL-60(TB) leukemia
[57] = system: SR leukemia
[58] = system: XF 498 CNS

## O=C1c2c(c3c4ccccc4[nH]c3c3[nH]c4ccccc4c23)C(=O)N1Cc1ccccc1
[1]
  TGI: 11.3 µM
[2]
  TGI: 13.5 µM
[3]
  TGI: 11 µM
[4]
  TGI: 10.2 µM
[5]
  TGI: 13.3 µM
[6]
  TGI: 4.66 µM
[7]
  TGI: 15.6 µM
[8]
  TGI: 8.92 µM
[9]
  TGI: 6.74 µM
[10]
  TGI: 23.7 µM
[11]
  TGI: 16.3 µM
[12]
  TGI: 8.76 µM
[13]
  TGI: 5.91 µM
[14]
  TGI: 14.8 µM
[15]
  TGI: 5.65 µM
[16]
  TGI: 14.5 µM
[17]
  TGI: 18.7 µM
[18]
  TGI: 14.2 µM
[19]
  TGI: 9.47 µM
[20]
  TGI: 8.57 µM
[21]
  TGI: 8.31 µM
[22]
  TGI: 11.4 µM
[23]
  TGI: 10.9 µM
[24]
  TGI: 12.9 µM
[25]
  TGI: 11.9 µM
[26]
  TGI: 7.51 µM
[27]
  TGI: 6.1 µM
[28]
  TGI: 6.16 µM
[29]
  TGI: 13.5 µM
[30]
  TGI: 4.72 µM
[31]
  TGI: 8.16 µM
[32]
  TGI: 10.5 µM
[33]
  TGI: 7.61 µM
[34]
  TGI: 13.8 µM
[35]
  TGI: 6.74 µM
[36]
  TGI: 4.12 µM
[37]
  TGI: 6.53 µM
[38]
  TGI: 14 µM
[39]
  TGI: 13.3 µM
[40]
  TGI: 6.26 µM
[41]
  TGI: 10.6 µM
[42]
  TGI: 11.7 µM
[43]
  TGI: 3.56 µM
[44]
  TGI: 9.49 µM
[45]
  TGI: 5.6 µM
[46]
  TGI: 9.02 µM
[47]
  TGI: 8.01 µM
[48]
  TGI: 9.63 µM
[49]
  TGI: 10.9 µM
[50]
  TGI: 11.6 µM
[51]
  TGI: 6.34 µM
[52]
  TGI: 13.3 µM
[53]
  TGI: 16.2 µM
[54]
  TGI: 6.69 µM

## O=C(CC1C(=O)Nc2ccccc2S1(=O)=O)Nc1cccc(Cl)c1 (stereo not drawn)
[1]
  TGI: 29.1 µM
[55]
  TGI: 39.1 µM
[2]
  TGI: 40.8 µM
[3]
  TGI: 33.5 µM
[4]
  TGI: 41.2 µM
[5]
  TGI: 47.2 µM
[7]
  TGI: 32.7 µM
[8]
  TGI: 30.6 µM
[9]
  TGI: 29.4 µM
[10]
  TGI: 42.2 µM
[11]
  TGI: 32.1 µM
[12]
  TGI: 32.1 µM
[13]
  TGI: 31.5 µM
[56]
  TGI: 44.1 µM
[15]
  TGI: 32.2 µM
[16]
  TGI: 32.3 µM
[17]
  TGI: 33.4 µM
[18]
  TGI: 38.4 µM
[20]
  TGI: 42.3 µM
[21]
  TGI: 28.6 µM
[22]
  TGI: 38.3 µM
[23]
  TGI: 42.1 µM
[24]
  TGI: 34.8 µM
[25]
  TGI: 63.7 µM
[26]
  TGI: 32.3 µM
[27]
  TGI: 35.8 µM
[28]
  TGI: 37.9 µM
[29]
  TGI: 31.8 µM
[30]
  TGI: 31.7 µM
[31]
  TGI: 29.6 µM
[32]
  TGI: 36.6 µM
[33]
  TGI: 59.1 µM
[34]
  TGI: 33.1 µM
[35]
  TGI: 24.1 µM
[36]
  TGI: 31.7 µM
[37]
  TGI: 45.3 µM
[38]
  TGI: 30.1 µM
[39]
  TGI: 54.3 µM
[40]
  TGI: 22.8 µM
[41]
  TGI: 84 µM
[42]
  TGI: 38.7 µM
[43]
  TGI: 35.8 µM
[45]
  TGI: 29.5 µM
[46]
  TGI: 46.8 µM
[47]
  TGI: 31.8 µM
[48]
  TGI: > 100 µM
[57]
  TGI: 40.7 µM
[49]
  TGI: 31.6 µM
[50]
  TGI: 46.6 µM
[51]
  TGI: 26.4 µM
[52]
  TGI: 50 µM
[53]
  TGI: 30.3 µM
[54]
  TGI: 32.9 µM
[58]
  TGI: 41.5 µM
